Data reported in article PMC11284788, “NN1213 – A Potent, Long-Acting, and Selective Analog of Human Amylin” (Journal of Medicinal Chemistry, 2024).
Where two headings read alike, the source gives them in different places. Numbered stars: 1 amine (or outer) side, 2 acyl side, 3 side chain; on linkers, the order of the positions; unused ones are H or OH. Bridge positions count the residues as written; N and C are the ends. Peptide text beside a SMILES is read from it. * marks the point of attachment. C20 diacid = O=C(O)CCCCCCCCCCCCCCCCCCC(=O)*; γGlu = O=C(O)[C@H](CCC(=O)[*:2])N[*:1]; AEEA = NCCOCCOCC(=O)O

Key:
[1] = biological target: T1, hAMY3R (Homo sapiens, UniProt O60896+P30988); test: cAMP-responsive element luciferase reporter assay, human AMY3R; format: cell-based; design: expressed in transfected cells; settings: for EC50 / hAMY3R pEC50: luciferase (human receptor assay); for ratio hCTR/hAMY3R: ratio of luciferase EC50 values
T1 sequence (P30988 25-474): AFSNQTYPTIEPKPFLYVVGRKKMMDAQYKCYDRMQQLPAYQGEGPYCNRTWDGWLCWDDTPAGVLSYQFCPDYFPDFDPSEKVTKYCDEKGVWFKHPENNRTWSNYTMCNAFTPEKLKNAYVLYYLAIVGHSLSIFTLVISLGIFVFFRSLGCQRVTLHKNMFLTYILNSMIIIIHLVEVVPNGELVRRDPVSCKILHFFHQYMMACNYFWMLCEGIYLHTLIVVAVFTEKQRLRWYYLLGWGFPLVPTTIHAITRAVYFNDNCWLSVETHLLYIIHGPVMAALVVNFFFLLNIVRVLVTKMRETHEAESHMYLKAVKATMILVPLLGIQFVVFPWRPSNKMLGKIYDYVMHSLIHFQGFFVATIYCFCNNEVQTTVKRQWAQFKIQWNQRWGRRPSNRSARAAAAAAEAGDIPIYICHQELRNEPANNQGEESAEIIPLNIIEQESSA
T1 sequence (O60896 24-148 partner): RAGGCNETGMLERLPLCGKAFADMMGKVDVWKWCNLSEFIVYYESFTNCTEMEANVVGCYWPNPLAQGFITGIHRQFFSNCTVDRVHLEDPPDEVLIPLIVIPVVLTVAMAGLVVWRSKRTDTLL

[2] = biological target: T2, rAMY3R (Rattus norvegicus, UniProt P32214+Q9JJ73); test: scintillation proximity binding assay, rAMY3R membranes; design: expressed in transfected cells; host or cells: BHK tk-ts 13, transient co-transfection (FuGENE 6); settings: for ratio rCTR/rAMY3R: ratio of binding IC50 values
T2 sequence (P32214 25-479 isoform P32214-2 limits assumed): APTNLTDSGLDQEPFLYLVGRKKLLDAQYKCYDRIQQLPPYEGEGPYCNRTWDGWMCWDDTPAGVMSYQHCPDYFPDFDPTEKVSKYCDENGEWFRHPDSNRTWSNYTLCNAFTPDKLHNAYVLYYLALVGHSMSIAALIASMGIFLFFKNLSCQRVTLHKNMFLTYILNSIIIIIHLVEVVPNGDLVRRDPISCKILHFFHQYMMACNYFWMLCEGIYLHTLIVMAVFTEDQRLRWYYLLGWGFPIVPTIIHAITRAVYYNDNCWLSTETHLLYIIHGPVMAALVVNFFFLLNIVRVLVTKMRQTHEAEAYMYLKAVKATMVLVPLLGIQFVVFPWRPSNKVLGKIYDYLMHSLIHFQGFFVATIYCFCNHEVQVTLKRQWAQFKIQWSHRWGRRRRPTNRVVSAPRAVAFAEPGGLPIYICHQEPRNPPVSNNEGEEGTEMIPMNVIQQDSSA
T2 sequence (Q9JJ73 23-147 partner): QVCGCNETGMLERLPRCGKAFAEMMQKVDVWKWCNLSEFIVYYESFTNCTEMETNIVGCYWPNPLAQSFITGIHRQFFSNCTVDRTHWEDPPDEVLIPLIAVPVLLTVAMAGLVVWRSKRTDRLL

[3] = biological target: T1, hAMY3R; test: scintillation proximity binding assay, hAMY3R membranes; design: expressed in transfected cells; host or cells: BHK tk-ts 13, transient co-transfection; membranes for the SPA, whole cells for the species-specific assays; settings: for ratio hCTR/hAMY3R: ratio of binding IC50 values
[4] = Tables S12 and S14, read-out: hAMY3R pEC50 (converted)
[5] = BHK cells stably expressing hCTR+RAMP3 and CRE-luciferase, 3 h, 37 °C, 10% FBS, read-out: hAMY3R EC50
[6] = SPA binding assay, Tables S13 and S15
[7] = SPA binding assay, Tables S13 and S15, read-out: rAMY3R pIC50 (converted)
[8] = SPA, BHK cell membranes, 125I-rat amylin, 120 min 25 °C, read-out: rAMY3R IC50
[9] = SPA binding assay, Tables S13 and S15, read-out: hAMY3R pIC50 (converted)
[10] = SPA, BHK cell membranes, 125I-rat amylin, 120 min 25 °C, read-out: hAMY3R IC50

EC50 [1, 4] [nM] | EC50 [1, 5] [nM] | ratio hCTR/hAMY3R [1] | rAMY3R pIC50 [2, 6] | ratio rCTR/rAMY3R [2] | hAMY3R pIC50 [3, 6] | ratio hCTR/hAMY3R [3] | hAMY3R pEC50 ([1]; Tables S12 and S14) | IC50 [2, 7] [nM] | IC50 [2, 8] [nM] | IC50 [3, 9] [nM] | IC50 [3, 10] [nM] | Structure (SMILES)
0.309 | 0.31 | 8.4 | 8.77 | 52 | 8.94 | 64 | – | – | – | – | – | CC[C@H](C)[C@H](NC(=O)[C@H](C)NC(=O)CNC(=O)[C@H](Cc1ccccc1)NC(=O)[C@H](CC(N)=O)NC(=O)[C@@H]1CCCN1C(=O)[C@H](CO)NC(=O)[C@H](CO)NC(=O)[C@H](Cc1c[nH]cn1)NC(=O)[C@H](CCCNC(=N)N)NC(=O)[C@H](CC(C)C)NC(=O)[C@H](Cc1ccccc1)NC(=O)[C@H](CC(N)=O)NC(=O)[C@H](C)NC(=O)[C@H](CC(C)C)NC(=O)[C@H](CCCNC(=N)N)NC(=O)[C@H](CCC(N)=O)NC(=O)[C@@H](NC(=O)[C@H](C)NC(=O)[C@@H]1CSSC[C@H](NC(=O)[C@H](CCCCN)NC(=O)CC[C@H](NC(=O)CCCCCCCCCCCCCCCCCCC(=O)O)C(=O)O)C(=O)N[C@@H](CC(N)=O)C(=O)N[C@@H]([C@@H](C)O)C(=O)N[C@@H](C)C(=O)N[C@@H]([C@@H](C)O)C(=O)N1)[C@@H](C)O)C(=O)N1CCC[C@H]1C(=O)N[C@@H](CO)C(=O)N[C@@H](CO)C(=O)N[C@H](C(=O)N[C@@H](CC(N)=O)C(=O)N[C@H](C(=O)NCC(=O)N[C@@H](CO)C(=O)N[C@@H](CCCCN)C(=O)N[C@H](C(=O)N[C@@H](Cc1ccc(O)cc1)C(N)=O)[C@@H](C)O)C(C)C)[C@@H](C)O [Peptide 13]
– | – | 15 | – | 60 | – | 48 | 9.44 | 0.912 | 0.92 | 0.891 | 0.885 | CC[C@H](C)[C@H](NC(=O)[C@H](C)NC(=O)CNC(=O)[C@H](Cc1ccccc1)NC(=O)[C@H](CC(N)=O)NC(=O)[C@@H]1CCCN1C(=O)[C@H](CO)NC(=O)[C@H](CO)NC(=O)[C@H](Cc1c[nH]cn1)NC(=O)[C@H](CCCNC(=N)N)NC(=O)[C@H](CC(C)C)NC(=O)[C@H](Cc1ccccc1)NC(=O)[C@H](CC(N)=O)NC(=O)[C@H](C)NC(=O)[C@H](CC(C)C)NC(=O)[C@H](CCCNC(=N)N)NC(=O)[C@H](CCC(N)=O)NC(=O)[C@@H](NC(=O)[C@H](C)NC(=O)[C@@H]1CSSC[C@H](NC(=O)[C@@H](N)CCCCNC(=O)CC[C@H](NC(=O)CCCCCCCCCCCCCCCCCCC(=O)O)C(=O)O)C(=O)N[C@@H](CC(N)=O)C(=O)N[C@@H]([C@@H](C)O)C(=O)N[C@@H](C)C(=O)N[C@@H]([C@@H](C)O)C(=O)N1)[C@@H](C)O)C(=O)N1CCC[C@H]1C(=O)N[C@@H](CO)C(=O)N[C@@H](CO)C(=O)N[C@H](C(=O)N[C@@H](CC(N)=O)C(=O)N[C@H](C(=O)NCC(=O)N[C@@H](CO)C(=O)N[C@@H](CCCCN)C(=O)N[C@H](C(=O)N[C@@H](Cc1ccc(O)cc1)C(N)=O)[C@@H](C)O)C(C)C)[C@@H](C)O [Peptide 14]
– | – | 12 | 8.75 | 55 | 9.18 | 29 | 9.66 | – | 1.77 | – | 0.662 | CC[C@H](C)[C@H](NC(=O)[C@H](C)NC(=O)CNC(=O)[C@H](Cc1ccccc1)NC(=O)[C@H](CC(N)=O)NC(=O)[C@@H]1CCCN1C(=O)[C@H](CO)NC(=O)[C@H](CO)NC(=O)[C@H](Cc1c[nH]cn1)NC(=O)[C@H](CCCNC(=N)N)NC(=O)[C@H](CC(C)C)NC(=O)[C@H](Cc1ccccc1)NC(=O)[C@H](CC(N)=O)NC(=O)[C@H](C)NC(=O)[C@H](CC(C)C)NC(=O)[C@H](CCCNC(=N)N)NC(=O)[C@H](CCC(N)=O)NC(=O)[C@@H](NC(=O)[C@H](C)NC(=O)[C@@H]1CSSC[C@H](NC(=O)[C@H](CCCCN)NC(=O)CC[C@H](NC(=O)CCCCCCCCCCCCCCCCCCC(=O)O)C(=O)O)C(=O)N[C@@H](CC(N)=O)C(=O)N[C@@H]([C@@H](C)O)C(=O)N[C@@H](C)C(=O)N[C@@H]([C@@H](C)O)C(=O)N1)[C@@H](C)O)C(=O)N1CCC[C@H]1C(=O)N[C@@H](CO)C(=O)N[C@@H](CO)C(=O)N[C@H](C(=O)N[C@@H](CC(N)=O)C(=O)N[C@H](C(=O)NCC(=O)N[C@@H](CCCNC(=N)N)C(=O)N[C@@H](CC(N)=O)C(=O)N[C@H](C(=O)N[C@@H](Cc1ccc(O)cc1)C(N)=O)[C@@H](C)O)C(C)C)[C@@H](C)O [Peptide 16]
0.151 | 0.151 | 17 | – | 39 | – | 29 | – | 1.29 | 1.29 | 0.479 | 0.484 | CC[C@H](C)[C@H](NC(=O)[C@H](C)NC(=O)CNC(=O)[C@H](Cc1ccccc1)NC(=O)[C@H](CC(N)=O)NC(=O)[C@@H]1CCCN1C(=O)[C@H](CO)NC(=O)[C@H](CO)NC(=O)[C@H](Cc1c[nH]cn1)NC(=O)[C@H](CCCNC(=N)N)NC(=O)[C@H](CC(C)C)NC(=O)[C@H](Cc1ccccc1)NC(=O)[C@H](CC(N)=O)NC(=O)[C@H](C)NC(=O)[C@H](CC(C)C)NC(=O)[C@H](CCCNC(=N)N)NC(=O)[C@H](CCC(N)=O)NC(=O)[C@@H](NC(=O)[C@H](C)NC(=O)[C@@H]1CSSC[C@H](NC(=O)[C@H](CCCCN)NC(=O)CC[C@H](NC(=O)CCCCCCCCCCCCCCCCCCC(=O)O)C(=O)O)C(=O)N[C@@H](CC(N)=O)C(=O)N[C@@H]([C@@H](C)O)C(=O)N[C@@H](C)C(=O)N[C@@H]([C@@H](C)O)C(=O)N1)[C@@H](C)O)C(=O)N1CCC[C@H]1C(=O)N[C@@H](CO)C(=O)N[C@@H](CO)C(=O)N[C@H](C(=O)N[C@@H](CC(N)=O)C(=O)N[C@H](C(=O)NCC(=O)N[C@@H](Cc1c[nH]cn1)C(=O)N[C@@H](CC(N)=O)C(=O)N[C@H](C(=O)N[C@@H](Cc1ccc(O)cc1)C(N)=O)[C@@H](C)O)C(C)C)[C@@H](C)O [Peptide 17]
– | – | 19 | – | 57 | – | 19 | – | – | – | – | – | CC[C@H](C)[C@H](NC(=O)[C@H](C)NC(=O)CNC(=O)[C@H](Cc1ccccc1)NC(=O)[C@H](CC(N)=O)NC(=O)[C@@H]1CCCN1C(=O)[C@H](CO)NC(=O)[C@H](CO)NC(=O)[C@H](Cc1c[nH]cn1)NC(=O)[C@H](CCCNC(=N)N)NC(=O)[C@H](CC(C)C)NC(=O)[C@H](Cc1ccccc1)NC(=O)[C@H](CC(N)=O)NC(=O)[C@H](C)NC(=O)[C@H](CC(C)C)NC(=O)[C@H](CCCNC(=N)N)NC(=O)[C@H](CCC(N)=O)NC(=O)[C@@H](NC(=O)[C@H](C)NC(=O)[C@@H]1CSSC[C@H](NC(=O)[C@H](CCCCN)NC(=O)COCCOCCNC(=O)CC[C@H](NC(=O)CCCCCCCCCCCCCCCCCCC(=O)O)C(=O)O)C(=O)N[C@@H](CC(N)=O)C(=O)N[C@@H]([C@@H](C)O)C(=O)N[C@@H](C)C(=O)N[C@@H]([C@@H](C)O)C(=O)N1)[C@@H](C)O)C(=O)N1CCC[C@H]1C(=O)N[C@@H](CO)C(=O)N[C@@H](CO)C(=O)N[C@H](C(=O)N[C@@H](CC(N)=O)C(=O)N[C@H](C(=O)NCC(=O)N[C@@H](CO)C(=O)N[C@@H](Cc1c[nH]cn1)C(=O)N[C@H](C(=O)N[C@@H](Cc1ccc(O)cc1)C(N)=O)[C@@H](C)O)C(C)C)[C@@H](C)O [Peptide 18] ({C20 diacid-γGlu-AEEA}-KCNTATCATQRLANFLRHSSPNFGAIPSSTNVGSHTY-NH2; disulfide 2-7; N-terminus assumed)
